ChEMBL document CHEMBL5584350, “Structural and Biochemical Insights into the Mechanism of Action of the Clinical USP1 Inhibitor, KSQ-4279” (J Med Chem, 2024)
Active and inactive are the calls of the source. The calls are words filed in the database; no cut-off is given here.

Assays:
[1] = organism: Homo sapiens; assay: Thermal stabilization of human His6-smt3 fused USP7 catalytic domain (208 to 560 residues) expressed in Escherichia coli assessed as increase in melting temperature at 50 uM by SYPRO orange dye based thermal shift assay
[2] = target: T1, Ubiquitin carboxyl-terminal hydrolase 1 (Homo sapiens) (UniProt O94782); conditions: dose 50.0 µM
T1 sequence (whole entry): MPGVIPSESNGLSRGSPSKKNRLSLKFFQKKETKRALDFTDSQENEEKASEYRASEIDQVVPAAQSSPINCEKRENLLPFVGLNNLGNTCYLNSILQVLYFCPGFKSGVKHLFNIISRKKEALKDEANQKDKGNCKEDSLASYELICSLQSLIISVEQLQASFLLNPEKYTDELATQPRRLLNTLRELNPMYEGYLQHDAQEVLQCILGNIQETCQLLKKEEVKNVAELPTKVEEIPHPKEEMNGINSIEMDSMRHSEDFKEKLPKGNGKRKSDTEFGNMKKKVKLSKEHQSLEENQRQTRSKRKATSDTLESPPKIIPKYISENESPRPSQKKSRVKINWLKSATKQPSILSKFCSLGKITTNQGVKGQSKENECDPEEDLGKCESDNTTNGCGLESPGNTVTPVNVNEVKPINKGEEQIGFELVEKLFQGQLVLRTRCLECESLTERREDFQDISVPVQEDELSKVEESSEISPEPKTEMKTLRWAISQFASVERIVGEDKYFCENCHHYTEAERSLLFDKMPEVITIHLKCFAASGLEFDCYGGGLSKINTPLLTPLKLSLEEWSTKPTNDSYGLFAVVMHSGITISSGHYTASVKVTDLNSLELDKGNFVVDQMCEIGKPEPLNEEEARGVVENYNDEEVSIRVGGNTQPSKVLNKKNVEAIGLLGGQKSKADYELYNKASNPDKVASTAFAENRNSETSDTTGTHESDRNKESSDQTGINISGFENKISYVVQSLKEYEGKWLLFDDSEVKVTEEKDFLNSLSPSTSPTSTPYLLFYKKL
Description: Thermal stabilization of human USP1 assessed as increase in melting temperature at 50 uM by SYPRO Orange dye based thermal shift assay

[3] = target: T1, Ubiquitin carboxyl-terminal hydrolase 1 (Homo sapiens); assay: Inhibition of human USP1 using FANC1-FANCD2Ub-ds DNA as substrate assessed as reduction in FANCD2 deubiquitination at 25 uM measured after 0 to 20 mins by instant-blue coomassie staining based SDS-PAGE analysis; conditions: time 0-20 min
[4] = Selectivity index, ratio of inhibition of USP12 (unknown origin) to IC50 for human USP1
[5] = target: Ubiquitin carboxyl-terminal hydrolase 11 (Homo sapiens) (UniProt P51784); assay: Inhibition of USP11 (unknown origin)
[6] = target: Ubiquitin carboxyl-terminal hydrolase 12 (Homo sapiens) (UniProt O75317); assay: Inhibition of human USP12 at 100 uM by ubiquitin-rhodamine assay relative to control
[7] = target: Ubiquitin carboxyl-terminal hydrolase 46 (Homo sapiens) (UniProt P62068); assay: Inhibition of human USP46 at 100 uM by ubiquitin-rhodamine assay relative to control
[8] = test system: Ubiquitin carboxyl-terminal hydrolase 1 (Homo sapiens), O94782 [UNDEFINED MUTATION]; assay: (§1) Binding affinity to human His6 tagged/TEV fused USP1 229 to 408/608 to 737 residues disordered inserts deletion mutant expressed in Sf21 insect cells assessed as displacement of N85 by measuring trypsin mediated protein truncation at F80 or R74 at 25 uM measured at 10 to 20 mins by instant-blue coomassie staining based SDS-PAGE analysis; conditions: time 10-20 min
[9] = test system: Ubiquitin carboxyl-terminal hydrolase 1 (Homo sapiens), O94782 [UNDEFINED MUTATION]; assay: as §1, with “alpha-chymotrypsin” for “trypsin”; conditions: time 10-20 min
[10] = target: Ubiquitin carboxyl-terminal hydrolase 46 (Homo sapiens) (UniProt P62068); assay: Inhibition of USP46 (unknown origin) at 10 uM relative to control
[11] = target: Ubiquitin carboxyl-terminal hydrolase 12 (Homo sapiens) (UniProt O75317); assay: Inhibition of USP12 (unknown origin) at 10 uM relative to control

Ubiquitin carboxyl-terminal hydrolase 46 (Homo sapiens), sequence (P62068 whole entry, the tested form may be a part): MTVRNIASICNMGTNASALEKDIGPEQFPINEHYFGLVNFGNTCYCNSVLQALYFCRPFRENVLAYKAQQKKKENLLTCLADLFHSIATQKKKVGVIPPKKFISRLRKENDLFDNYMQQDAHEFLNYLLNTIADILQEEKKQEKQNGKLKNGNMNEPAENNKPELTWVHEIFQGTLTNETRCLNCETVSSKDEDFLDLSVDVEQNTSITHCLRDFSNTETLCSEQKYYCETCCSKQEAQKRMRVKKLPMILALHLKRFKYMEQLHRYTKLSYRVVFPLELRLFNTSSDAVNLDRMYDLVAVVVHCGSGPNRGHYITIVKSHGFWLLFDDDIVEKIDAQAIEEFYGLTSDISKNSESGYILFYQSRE
Ubiquitin carboxyl-terminal hydrolase 12 (Homo sapiens), sequence (O75317 whole entry): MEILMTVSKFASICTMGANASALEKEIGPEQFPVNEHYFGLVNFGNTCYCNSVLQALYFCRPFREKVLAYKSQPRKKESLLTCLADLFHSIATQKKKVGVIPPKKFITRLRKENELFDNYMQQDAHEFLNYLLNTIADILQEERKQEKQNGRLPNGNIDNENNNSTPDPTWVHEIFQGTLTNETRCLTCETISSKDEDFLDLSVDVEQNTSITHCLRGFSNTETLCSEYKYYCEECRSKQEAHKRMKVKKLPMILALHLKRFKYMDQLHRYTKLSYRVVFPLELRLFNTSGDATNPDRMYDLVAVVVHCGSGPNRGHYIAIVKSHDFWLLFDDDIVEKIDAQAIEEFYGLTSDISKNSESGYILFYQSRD
Ubiquitin carboxyl-terminal hydrolase 11 (Homo sapiens), sequence (P51784 whole entry): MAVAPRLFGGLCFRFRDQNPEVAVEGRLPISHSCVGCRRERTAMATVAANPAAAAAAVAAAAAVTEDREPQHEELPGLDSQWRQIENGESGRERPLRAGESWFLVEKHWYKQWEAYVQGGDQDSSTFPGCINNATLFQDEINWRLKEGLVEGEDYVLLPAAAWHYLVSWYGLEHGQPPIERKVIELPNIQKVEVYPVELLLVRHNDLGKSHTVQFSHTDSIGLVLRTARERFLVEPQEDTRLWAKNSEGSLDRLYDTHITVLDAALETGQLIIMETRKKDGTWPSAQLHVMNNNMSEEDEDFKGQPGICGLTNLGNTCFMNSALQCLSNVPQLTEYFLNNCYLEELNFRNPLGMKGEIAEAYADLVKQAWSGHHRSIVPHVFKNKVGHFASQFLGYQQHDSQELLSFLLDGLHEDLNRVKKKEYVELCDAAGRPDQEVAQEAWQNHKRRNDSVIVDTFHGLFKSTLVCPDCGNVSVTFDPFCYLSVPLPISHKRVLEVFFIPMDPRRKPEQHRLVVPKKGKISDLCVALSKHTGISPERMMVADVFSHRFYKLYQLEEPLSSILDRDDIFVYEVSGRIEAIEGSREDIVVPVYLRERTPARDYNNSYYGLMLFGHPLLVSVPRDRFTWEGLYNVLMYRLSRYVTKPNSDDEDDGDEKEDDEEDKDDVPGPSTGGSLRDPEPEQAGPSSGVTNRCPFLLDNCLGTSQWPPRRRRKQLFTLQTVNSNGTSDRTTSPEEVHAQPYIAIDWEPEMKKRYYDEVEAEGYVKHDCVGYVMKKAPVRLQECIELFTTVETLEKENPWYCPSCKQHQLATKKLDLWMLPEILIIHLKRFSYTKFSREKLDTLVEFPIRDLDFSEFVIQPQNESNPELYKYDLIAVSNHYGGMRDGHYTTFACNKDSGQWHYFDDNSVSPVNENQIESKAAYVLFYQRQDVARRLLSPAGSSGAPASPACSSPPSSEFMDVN

## Cc1cnc(-c2ccccc2C(C)C)nc1NCc1ccc(-n2ccnn2)cc1
[1]
  Activity: inactive
[2]
  ΔTm: 11 °C
[3]
  inhibition: inactive
[4]
  Selectivity Index: 100
[5]
  inhibition: inactive

## COc1ncnc(C2CC2)c1-c1ncc2cnn(Cc3ccc(-c4nc(C(F)(F)F)cn4C(C)C)cc3)c2n1
[1]
  Activity: inactive
[6]
  inhibition: < 50%
[5]
  inhibition: inactive
[7]
  inhibition: < 50%

## O=C1c2ccccc2C(=O)c2oc(-c3ccccc3)nc21
[8]
  Activity: inactive
[9]
  Activity: inactive

## CC(C)c1ccccc1-c1ncc2[nH]c(=O)n(Cc3ccc(-c4nc(C(F)(F)F)cn4C)cc3)c2n1
[10]
  inhibition: 50%
[11]
  inhibition: 50%
